The term MIC denotes the lowest concentration that inhibits growth of the organism. By pIC50 is commonly meant the IC50 on a negative log10 scale, so that one unit is a factor of ten.

The source of these data is patent US5444087A, “Manumycin compounds” (Bristol-Myers Squibb Company, priority 1993, dated 1995).

pIC50: −log10 of the molar value. In brackets after ≈: the same amount, converted by molar mass.

The test system of data set [1] is Staphylococcus aureus A9606. As to the kind of experiment: MIC by broth dilution assay, S. aureus A9606. The class given is cell-based. Conditions: serial broth dilution, nutrient broth. On the technique in general: In broth dilution the organism is exposed to a series of concentrations in liquid medium.
The subject of data set [2] is Bacillus subtilis A9506. As to the kind of experiment: MIC by broth dilution assay, B. subtilis A9506. The format is cell-based. Conditions: serial broth dilution, nutrient broth.
Data set [3] has as its system Proteus mirabilis A9900. Kind of data set: MIC by broth dilution assay, P. mirabilis A9900. The format is cell-based. Conditions: serial broth dilution, nutrient broth.
Data set [4] concerns Pseudomonas aeruginosa A9843. As to the kind of experiment: MIC by broth dilution assay, P. aeruginosa A9843. Particulars: serial broth dilution, nutrient broth. The class given is cell-based.
Data set [5] concerns Staphylococcus aureus A9537. As to the kind of experiment: MIC by broth dilution assay, S. aureus A9537. The class given is cell-based. Particulars: serial broth dilution, nutrient broth.
In data set [6] the test system is Escherichia coli SGB888. Kind of data set: MIC by broth dilution assay, E. coli SGB888. The class given is cell-based. Conditions: serial broth dilution, nutrient broth.
In data set [7] the target is farnesylation of Ras protein p21 (protein-cysteine farnesyltransferase). As to the kind of experiment: Inhibition of farnesylation of Ras protein p21 (assay of Manne et al.). The format is biochemical. Particulars: assay described by Manne et al. (1990); read-out: IC50 value in inhibiting the farnesylation of Ras protein p21.
Data set [8] deals with M. luteus A21349. Kind of data set: MIC by broth dilution assay, M. luteus A21349. The format is cell-based. Conditions: Micrococcus luteus, serial broth dilution, nutrient broth.
Data set [9] has as its system Enterobacter cloacae A9656. Kind of data set: MIC by broth dilution assay, E. cloacae A9656. Particulars: serial broth dilution, nutrient broth. The class given is cell-based.
Data set [10] concerns Salmonella typhimurium A27908. As to the kind of experiment: MIC by broth dilution assay, S. typhimurium A27908. The class given is cell-based. Particulars: Salmonella enterica, serial broth dilution, nutrient broth.
Data set [11] has as its system Staphylococcus epidermidis A24548. As to the kind of experiment: MIC by broth dilution assay, S. epidermidis A24548. Particulars: serial broth dilution, nutrient broth. The format is cell-based.
The subject of data set [12] is Klebsiella pnneumoniae A9664. Kind of data set: MIC by broth dilution assay, K. pneumoniae A9664. Particulars: serial broth dilution, nutrient broth. The format is cell-based.
For data set [13], the system named is Micrococcus luteus A9852. As to the kind of experiment: MIC by broth dilution assay, M. luteus A9852. The format is cell-based. Particulars: serial broth dilution, nutrient broth.
A short description of data set [14]: Solubility. The format is physicochemical.

For the molecule `CC(C)CC/C=C/C=C/C=C/C(=O)NC1=CC(O)(/C=C/C=C/C=C/C(=O)NC2=C(O)CCC2=O)C2OC2C1=O` (stereo not drawn) [Manumycin C, 2,4,6-heptatrienenamide, 7-isopentyl-N-[5-hydroxy-5-[7-[2-hydroxy-5-oxo-1-cyclopenten-1-yl-amino]-7-oxo-1,3,5-heptatrienyl]-2-oxo-7-oxabicyclo[4.1.0]hept-3-en-yl]-, (all-E)-], the MIC was 4 µg/mL (≈ 7.48 µM) in [1]; 1 µg/mL (≈ 1.87 µM) in data set [2]; 128 µg/mL (≈ 239 µM) in data set [3]; 64 µg/mL (≈ 120 µM) in data set [4]; 2 µg/mL (≈ 3.74 µM) in [5]; 0.32 µg/mL (≈ 0.599 µM) in data set [6]. In addition, the MIC is 4 µg/mL (≈ 7.48 µM) in [8]; 128 µg/mL (≈ 239 µM) in [9]; 2 µg/mL (≈ 3.74 µM) in data set [10]; 2 µg/mL (≈ 3.74 µM) in data set [11]; 128 µg/mL (≈ 239 µM) in data set [12]; 8 µg/mL (≈ 15 µM) in data set [13]. Further, the negative-log IC50 (pIC50) in data set [7] was 4.00. Moreover, the solubility in acetone result in data set [14] is given as “soluble”. Besides, the solubility in acetonitrile result in data set [14] is on record as “soluble”. In addition, in data set [14], the “solubility in dimethyl sulfoxide” value is on record as “soluble”. The solubility in hexane result in data set [14] is listed as “insoluble”. For the same molecule, in data set [14], the solubility in water entry is “insoluble”.

For `O=C(/C=C/C=C/C=C/C1CCCCC1)NC1=CC(O)(/C=C/C=C/C=C/C(=O)NC2=C(O)CCC2=O)C2OC2C1=O` (stereo not drawn) [Manumycin D, 2,4,6-heptatrienenamide, 7-cyclohexyl-N-[5-hydroxy-5-[7-[2-hydroxy-5-oxo-1-cyclopenten-1-yl-amino]-7-oxo-1,3,5-heptatrienyl]-2-oxo-7-oxabicyclo[4.1.0]hept-3-en-yl]-, (all-E)-], the minimal inhibitory concentration (MIC) in data set [1] was 2 µg/mL (≈ 3.66 µM); in data set [2] it was 0.5 µg/mL (≈ 0.915 µM); in [3], 128 µg/mL (≈ 234 µM); in data set [4], 128 µg/mL (≈ 234 µM); in [5] it was 1 µg/mL (≈ 1.83 µM); in data set [6], 0.1 µg/mL (≈ 0.183 µM). For the same molecule, the MIC in [8] was 1 µg/mL (≈ 1.83 µM); in data set [9], 128 µg/mL (≈ 234 µM); in [10], 0.5 µg/mL (≈ 0.915 µM); in [11] it was 1 µg/mL (≈ 1.83 µM); in data set [12] it was 128 µg/mL (≈ 234 µM); in data set [13], 2 µg/mL (≈ 3.66 µM). Also, the pIC50 in data set [7] was 4.03. Besides, the solubility in acetone entry in data set [14] is on record as “soluble”. The solubility in acetonitrile result in [14] is “soluble”. Further, the “solubility in dimethyl sulfoxide” value in data set [14] is reported as “soluble”. In addition, the solubility in hexane entry in data set [14] was “insoluble”. Further, the solubility in water result in data set [14] is reported as “insoluble”.

With `CC(C)/C=C/C=C/C=C/C(=O)NC1=CC(O)(/C=C/C=C/C=C/C(=O)NC2=C(O)CCC2=O)C2OC2C1=O` (stereo not drawn) [Manumycin E, 2,4,6-heptatrienenamide, 7-isopropyl-N-[5-hydroxy-5-[7-[2-hydroxy-5-oxo-1-cyclopenten-1-yl-amino]-7-oxo-1,3,5-heptatrienyl]-2-oxo-7-oxabicyclo[4.1.0]hept-3-en-yl]-, (all-E)-], the MIC is 8 µg/mL (≈ 15.8 µM) in data set [1]; 8 µg/mL (≈ 15.8 µM) in data set [2]; 128 µg/mL (≈ 253 µM) in data set [3]; 128 µg/mL (≈ 253 µM) in data set [4]; 8 µg/mL (≈ 15.8 µM) in [5]; 2.5 µg/mL (≈ 4.94 µM) in data set [6]. For the same molecule, the minimum inhibitory concentration (MIC) in [8] is 16 µg/mL (≈ 31.6 µM); in data set [9], 128 µg/mL (≈ 253 µM); in [10], 32 µg/mL (≈ 63.2 µM); in [11], 8 µg/mL (≈ 15.8 µM); in data set [12], 128 µg/mL (≈ 253 µM); in [13], 16 µg/mL (≈ 31.6 µM). Besides, the pIC50 in [7] is 3.92. For the same molecule, the solubility in acetone result in data set [14] is given as “soluble”. Moreover, in data set [14], the solubility in acetonitrile entry is given as “soluble”. For the same molecule, in [14], the “solubility in dimethyl sulfoxide” value was “soluble”. The solubility in hexane result in [14] is “insoluble”. For the same molecule, the solubility in water result in data set [14] is “insoluble”.
